The subject of one series is Amniotic cells. As to the kind of experiment: Slide in situ hybridization, effect of DMSO (Example 1), amniotic cells, Y probe. It counts as cell-based, human. The settings on record: assay solution HC + 10% DMSO. The text has this: (§1) The Y probe (also referred to as the HYR probe) was a collection of oligonucleotides specific for human Y chromosome α-satellite DNA repeated sequences; where the probe was to be detected under a fluorescent microscope, it was labeled at its 5' end, via an Aminolink linker molecule (aminohexyl, from Applied Biosystems, Inc.), to a Texas Red Moiety.
Amniotic cells were obtained by standard amniocentesis procedure.
(§2) Slide in situ Cell Preparation and Hybridization Protocol
(§3) 1) Cells were suspended in a fixative (3 vol ethanol plus 1 vol methanol) and transferred to glass slides by centrifugation using a Cytospin apparatus.
(§4) 2) The assay solution (consisting of the hybridization cocktail HC alone or mixed with a compound or compounds being tested as an enhancer) with the DNA probe (25 ul) was placed over the cells and covered with a coverslip.
(§5) 3) The slide was heated at 90° C. for 5 minutes for DNA denaturation, then incubated at 46° C. for 30 minutes for hybridization.
(§6) 4) Cells were washed once with the wash solution #1, which was equilibrated at 42° C. Then cells were washed ten times with wash solution #2, which was equilibrated at 42° C.
(§7) 5) Mounting solution (50% glycerol (v/v) in 1×PBS plus the nuclear stain Hoechst, (#33258; 1 ug/ml) was placed on the cells and covered with a coverslip. […]

For another series, the system named is Hepg 2 cells. Kind of series: Slide in situ hybridization, DMSO plus one additional compound (Example 2), HYR probe. The class given is cell-based, human. The settings on record: for Fluorescent signal (Scale of 1 to 4): 10% (v/v) additional compound with 9% DMSO, slide rating x 0.5, water control = 2, average of four experiments. The protocol:
as §2, §3, §4, §5, §6
5) Mounting solution (50% glycerol (v/v) in 1×PBS plus the nuclear stain Hoechst, (#33258; 1 ug/ml) was placed on the cells and covered with a coverslip.
6) The hybridization signal was observed under an Olympus BH10 microscope with fluorescent capabilities using a rhodamine derivative filters (excitation wavelength of 567 nm, emission wavelength of 584 nm).
The inclusion of DMSO in an in situ assay solution increased the permeation of the nucleic acid probes into the cells and gave hybridization signal in over 95% of the cells. In this Example, we show the effect of adding, in addition to DMSO, 10 percent (v/v) of an additional compound to the assay solution. The additional compounds added were: squalane (an aliphatic alkane), dodecyl alcohol (an alcohol), beta-cyclodextrin (a sugar), isopropyl palmitate (a fatty acid ester), 1,2, propanediol (an alcohol), pyrrolidinone (a lactam) and hexamethyldisiloxane (an organic silane).
In this Example, the hybridization cocktail consisted of nine volumes of HC-DMSO plus one volume of an additional compound. In the control sample, one volume of water was added instead of one volume of additional compound. As a result, in all samples, the concentration of DMSO in the cocktail was 9 percent (v/v).
The Slide In Situ Cell Preparation and Hybridization protocol was followed. The cells used were Hepg 2 cells. The probe used was an HYR probe specific for human Y chromosome α-satellite DNA repeated sequences; at its 5' end, via an Aminolink linker molecule, the probe was linked to a Texas Red moiety. A signal intensity of 4 was assigned to the slide in which the assay solution was HC plus 10% DMSO (control slide) and all other slides were rated 1, 2, 3 or 4 in comparison to the control slide, depending on whether the intensity was 1, 2, 3, or 4 times that of the control slide, respectively.
The results are an average of four independent experiments.

Series [1] concerns WBC cells (white blood cells). As to the kind of experiment: Slide in situ hybridization, effect of DMSO (Example 1), WBC cells, Y probe. It counts as cell-based, human. The conditions noted are these: assay solution HC + 10% DMSO.
Excerpt: as §1
WBC cells (white blood cells) were obtained from a healthy human.
as §2, §3, §4, §5, §6, §7

In a further series the test system is Hepg2 cells. Kind of series: Slide in situ hybridization, effect of DMSO (Example 1), Hepg2 cells, Y probe. The class given is cell-based, human. The conditions noted are these: assay solution HC + 10% DMSO.
The subject of the next series is Hela cells. As to the kind of experiment: Liquid in situ hybridization with flow cytometry, DMSO plus additional compound (Example 4), 28S RNA and NR probes. The settings on record: for 28S RNA Probe, mean LFL1: FITC 28S RNA probe, water control 6.070, average of four experiments; for NR Probe, mean LFL1: FITC NR probe (non-specific binding and autofluorescence), water control 0.137. The class given is cell-based. From the text:
(§8) A Coulter Profile II flow cytometer was used for flow cytometry. With FITC as the probe dye, the filter for LFL3 was a 635 nm long pass filter and the filter for LFL1 was a 540 bp filter; the excitation wavelength was 488 nm. PMT1 and PMT3 settings were adjusted as required. A typical useful setting when fluorescein is the dye moiety is to have a PMT1 setting of 1100, a PMT3 setting of 900, and color compensation (PMT1, PMT3) of 15 percent.
(§9) Liquid in Situ Cell Preparation and Hybridization Protocol
(§10) 1. Cells were fixed in solution F, then resuspended in 2x SSC.
(§11) 2. The cells were spun out of solution and resuspended in an assay solution (consisting of the hybridization cocktail HC alone or in combination with a compound or compounds being tested as an enhancer.)
(§12) 3. After 30 min. at 42° C., the cells were washed in wash solution #1 preheated to 42° C. by centrifuging them out of the assay solution.
(§13) 4. Cells were next washed in wash solution #2 preheated to 42° C.
(§14) 5. Cells were resuspended in a 1X PBS solution containing 0.002% trypan blue as a counterstain.
(§15) 6. Cells were run on a flow cytometer and a "Count vs. LFL1" histogram was generated. ("Count" refers to cell count.) This histogram was used as the basis for determining the mean LFL1.
The effect on probe signal intensity of adding, in addition to DMSO, additional compounds to the assay solution was determined in an in situ liquid hybridization assay. The data was analyzed by flow cytometry.
The Liquid In Situ Cell Preparation and Hybridization Protocol was followed. The cells used were Hela cells. The probes used were a 28S RNA probe (SEQ ID NO: 1) and an NR probe.
The 28S RNA probe (SEQ ID NO: 1) is a target-specific probe specific for ribosomal RNA fluorescence obtained with it represents the sum of fluorescence from target-bound probe, non-specifically bound probe and autofluorescence from cellular molecules. The NR probe (SEQ ID NO: 2) is specific for a plant nucleic acid sequence and, in the current Example, the fluorescence obtained with it represent the sum of fluorescence from non-specifically bound probe and autofluorescence.
(§16) In this experiment, the hybridization cocktail consisted of nine volumes of HC-DMSO plus one volume of additional compound. In the control sample, one volume of water replaced the one volume of additional compound. As a result, in all samples, the concentration of DMSO was 9 percent (v/v).
The ratio, 28S/NR, is the ratio of the mean LFL1 observed with the 28S RNA probe (SEQ ID NO: 1) to the mean LFL1 observed with the NR probe (SEQ ID NO: 2). The results in the "28S RNA probe" and "NR probe" columns give the mean LFL1 observed with the 28S RNA and NR probes, respectively (SEQ ID NO: 1 and SEQ ID NO: 2, respectively).
(A flow cytometer gives signals particle by particle.)

Series [2] has as its system Human female white blood cells (karyotype XX). As to the kind of experiment: Signal enhancers in the mounting solution after in situ hybridization (Example 6), HXR probes, fluorescent microscope. The class given is cell-based. The conditions noted are these: not further described.
Series [3] shares this test system. The series is described as above. It counts as cell-based. The settings on record: one volume compound plus 9 volumes mounting solution; rhodamine HXR probes; water control = 1. Here is the method: After the in situ hybridization step, the cells were washed and then modified mounting solution was added and cells were observed under the microscope for fluorescence signal. Modified mounting solution was 9 volumes of mounting solution and one volume of additional compound, which was the compound being tested for its ability to be a signal enhancer. Mounting solution consisted of 0.1% 1,4 diphenylamine (antifade) in 50% glycerol (v/v), and nuclear stain Hoechst (#33258; 1 ug/ml).
Human female white blood cells (karyotype XX) were hybridized at 85° C. for 15 minutes with female chromosome HXR probes labelled with a rhodamine fluor. Cells were washed with wash buffers #1 and #2, and then suspended in a modified mounting solution. The additional compound in the modified mounting solution was varied; as a control, water was used as the additional compound. The signal intensity was observed under the fluorescent microscope.

Series [4] in a line: Precipitation of additional compound from the hybridization cocktail (Example 4). It counts as physicochemical. The conditions noted are these: 10 percent in hybridization cocktail (HC-DMSO).
Excerpt: as §16

The subject of the next series is α-satellite DNA. As to the kind of experiment: Liquid in situ hybridization with flow cytometry, DMSO plus squalane plus additional compound (Example 5), α-satellite DNA and NR probes. It counts as cell-based.
Excerpt: as §8, §9, §10, §11, §12, §13, §14, §15
The Liquid In Situ Cell Preparation and Hybridization Protocol was followed.
The "α-satellite" DNA probe is a target specific probe specific α-satellite DNA. Fluorescence obtained with it represents the sum of fluorescence from target-bound probe, non-specifically bound probe and autofluorescence from cellular molecules.
The effect of a combination of DMSO and squalane on the probe signal was measured as was that combination further enhanced with a third compound.
In this Example, in all but two cases, the hybridization cocktail consisted of 9 volumes of HC-DMSO, a half volume of squalane, and a half volume of an additional compound. In one case, the additional compound was replaced by water, so that the hybridization compound consisted of 9 volumes of HC-DMSO, a half volume of squalane, and a half volume of water. In the control sample, the cocktail consisted of nine volumes of HC-DMSO and one volume of water. As a result, in all samples, there was 9 percent DMSO (v/v). When present, squalane was present at 5 percent. When present, the additional compound was present at 5%.
The ratio, α-SAT/NR, is the ratio of the mean LFL1 for the α-satellite DNA probe ([…]) to the mean LFL1 for the NR probe.

[5] abbreviates: 10% additional compound with 9% DMSO.

Structures are written as SMILES.

Excerpt for Hepg2 cells: Hepg2 cells were a human cell line (American Type Culture Collection number, ATCC-HB8065).
In this Example, the slide in situ cell preparation and hybridization protocol was followed.

Take `C[S+](C)[O-]` [DMSO, dimethyl sulfoxide]: the “Fluorescent Signal intensity (Scale of 1 to 4)” value (in the series with Amniotic cells; in series [1]; with Hepg2 cells) was 4 each time. The “Cells giving hybridization signal” value in the series with Hepg 2 cells (DMSO included in in situ assay solution, cells not specified (opening statement of Example 2)) was “over 95%”. In the series with Hela cells (DMSO alone, nine percent), the “Optimal DMSO concentration for signal brightness” value is “at or close to the optimal DMSO concentration for signal brightness”.

On to `CCCCCCCCCCCCO` [dodecyl alcohol], for which the “Fluorescent signal (Scale of 1 to 4)” value with Hepg 2 cells was found to be 2. Also, the “Effect on signal in an earlier experiment” value in series [2] is listed as “decrease in signal”. In addition, the “Signal Intensity Scale of 1 to 4” value in [3] was determined as 4. Also, in the series with Hela cells (setting [5]), the “28S RNA Probe, mean LFL1” value was determined as 4.804 and the “NR Probe, mean LFL1” value amounted to 0.142. In addition, in the series on Hela cells (10% additional compound with 9% DMSO, water control 44), the “Ratio 28S RNA/NR (ratio of mean LFL1)” value came to 34.

Consider `CC(C)CCCC(C)CCCC(C)CCCCC(C)CCCC(C)CCCC(C)C` (stereo not drawn) [squalane], for which the “Fluorescent signal (Scale of 1 to 4)” value with Hepg 2 cells is reported as 2. Further, the “Signal Intensity Scale of 1 to 4” value in series [3] is recorded as 3. Further, the Precipitation from solution entry in series [4] is listed as “precipitation from solution”. Besides, the “NR Probe, mean LFL1” value in the series on α-satellite DNA (5% squalane with 9% DMSO, water instead of additional compound, DMSO-only control 0.175) is 0.125; in the series with Hela cells (setting [5]) it was 0.123. For the same compound, in the series with α-satellite DNA (5% squalane with 9% DMSO, water instead of additional compound, DMSO-only control 3.829), the “α-SAT Probe, mean LFL1” value is on record as 4.604. In addition, in the series on α-satellite DNA (5% squalane with 9% DMSO, water instead of additional compound, DMSO-only control 22), the “Ratio α-SAT/NR (ratio of mean LFL1)” value was 37. The “Increase of DNA probe signal intensity compared to DMSO alone” value in the series on α-satellite DNA (squalane plus DMSO) was 1.68 fold. In addition, the “28S RNA Probe, mean LFL1” value with Hela cells (setting [5]) is reported as 0.611. In addition, in the series on Hela cells (10 percent compound with 9% DMSO), the “Signal intensity after precipitation (biphasic mixture)” value is given as “markedly decreased”.

Values taken from patent publication US5521061A, “Enhancement of probe signal in nucleic acid-mediated in-situ hybridization studies” (Aprogenex, Inc., priority 1992, dated 1996).
